According to US20130165368A1, “ANTIMICROBIAL COMPOUNDS” (priority 2010, published 2013):
In brackets after ≈: the same amount, converted by molar mass.

tested on: Escherichia coli; test: MIC agar dilution, micro-organism 1 (10418); assay type: cell-based; details: Escherichia coli 10418; 22 hrs; read-out: MIC
Summary of the method: (§1)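 Twofold dilutions of compound emulsions in water were set in Isosensitest agar with Brazier's CCEY medium, egg yolk and lysed horse blood. Spots of 1 µL from 0.5 McFarland suspensions diluted 1/15 were incubated aerobically at 37 °C and read at 22 and 48 h. MIC (mmol/L) was the lowest concentration giving <10 colonies.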

Compound | MIC [µM]
CCCCCCCCCCCCOCCOCCOCCO [L3, Triethylene Glycol Monododecyl Ether] | > 880
CCCCCCCCCCCCOCCOCCOCCOCCOCCOCCOCCOCCO [L8, Octaethylene Glycol Monododecyl Ether] | > 880

same assay, conditions: Escherichia coli 10418; 48 hrs; read-out: MIC

Compound | MIC [µM]
CCCCCCCCCCCCOCCOCCOCCO [L3, Triethylene Glycol Monododecyl Ether] | > 880
CCCCCCCCCCCCOCCOCCOCCOCCOCCOCCOCCOCCO [L8, Octaethylene Glycol Monododecyl Ether] | > 880

tested on: Providencia rettgeri; test: MIC agar dilution, micro-organism 3 (7475); assay type: cell-based; details: Providencia rettgeri 7475; 22 hrs; read-out: MIC
Summary of the method: as §1

Compound | MIC [µM]
CCCCCCCCCCCCOCCOCCOCCO [L3, Triethylene Glycol Monododecyl Ether] | > 880
CCCCCCCCCCCCOCCOCCOCCOCCOCCOCCOCCOCCO [L8, Octaethylene Glycol Monododecyl Ether] | > 880

same assay, conditions: Providencia rettgeri 7475; 48 hrs; read-out: MIC

Compound | MIC [µM]
CCCCCCCCCCCCOCCOCCOCCO [L3, Triethylene Glycol Monododecyl Ether] | > 880
CCCCCCCCCCCCOCCOCCOCCOCCOCCOCCOCCOCCO [L8, Octaethylene Glycol Monododecyl Ether] | > 880

tested on: Enterococcus faecium; test: MIC agar dilution, micro-organism 16 (7171); assay type: cell-based; details: Enterococcus faecium 7171; 22 hrs; read-out: MIC
Summary of the method: as §1

Compound | MIC [µM]
CCCCCCCCCCCCOCCOCCOCCO [L3, Triethylene Glycol Monododecyl Ether] | 110 (≈ 35 µg/mL)
CCCCCCCCCCCCOCCOCCOCCOCCOCCOCCOCCOCCO [L8, Octaethylene Glycol Monododecyl Ether] | > 880

same assay, conditions: Enterococcus faecium 7171; 48 hrs; read-out: MIC

Compound | MIC [µM]
CCCCCCCCCCCCOCCOCCOCCO [L3, Triethylene Glycol Monododecyl Ether] | 110 (≈ 35 µg/mL)
CCCCCCCCCCCCOCCOCCOCCOCCOCCOCCOCCOCCO [L8, Octaethylene Glycol Monododecyl Ether] | > 880

tested on: Enterococcus faecalis; test: MIC agar dilution, micro-organism 17 (775); assay type: cell-based; details: Enterococcus faecalis 775; 22 hrs; read-out: MIC
Summary of the method: as §1

Compound | MIC [µM]
CCCCCCCCCCCCOCCOCCOCCO [L3, Triethylene Glycol Monododecyl Ether] | 110 (≈ 35 µg/mL)
CCCCCCCCCCCCOCCOCCOCCOCCOCCOCCOCCOCCO [L8, Octaethylene Glycol Monododecyl Ether] | 110 (≈ 59.3 µg/mL)

same assay, conditions: Enterococcus faecalis 775; 48 hrs; read-out: MIC

Compound | MIC [µM]
CCCCCCCCCCCCOCCOCCOCCO [L3, Triethylene Glycol Monododecyl Ether] | 110 (≈ 35 µg/mL)
CCCCCCCCCCCCOCCOCCOCCOCCOCCOCCOCCOCCO [L8, Octaethylene Glycol Monododecyl Ether] | 110 (≈ 59.3 µg/mL)

tested on: Bacillus subtilis; test: MIC agar dilution, micro-organism 18 (9372); assay type: cell-based; details: Bacillus subtilis 9372; 22 hrs; read-out: MIC
Summary of the method: as §1

Compound | MIC [µM]
CCCCCCCCCCCCOCCOCCOCCO [L3, Triethylene Glycol Monododecyl Ether] | 110 (≈ 35 µg/mL)
CCCCCCCCCCCCOCCOCCOCCOCCOCCOCCOCCOCCO [L8, Octaethylene Glycol Monododecyl Ether] | 110 (≈ 59.3 µg/mL)

same assay, conditions: Bacillus subtilis 9372; 48 hrs; read-out: MIC

Compound | MIC [µM]
CCCCCCCCCCCCOCCOCCOCCO [L3, Triethylene Glycol Monododecyl Ether] | 110 (≈ 35 µg/mL)
CCCCCCCCCCCCOCCOCCOCCOCCOCCOCCOCCOCCO [L8, Octaethylene Glycol Monododecyl Ether] | 110 (≈ 59.3 µg/mL)

tested on: Candida albicans; test: MIC agar dilution, micro-organism 19 (90028); assay type: cell-based; details: Candida albicans 90028; 22 hrs; read-out: MIC
Summary of the method: as §1

Compound | MIC [µM]
CCCCCCCCCCCCOCCOCCOCCO [L3, Triethylene Glycol Monododecyl Ether] | 220 (≈ 70.1 µg/mL)
CCCCCCCCCCCCOCCOCCOCCOCCOCCOCCOCCOCCO [L8, Octaethylene Glycol Monododecyl Ether] | > 880

same assay, conditions: Candida albicans 90028; 48 hrs; read-out: MIC

Compound | MIC [µM]
CCCCCCCCCCCCOCCOCCOCCO [L3, Triethylene Glycol Monododecyl Ether] | 220 (≈ 70.1 µg/mL)
CCCCCCCCCCCCOCCOCCOCCOCCOCCOCCOCCOCCO [L8, Octaethylene Glycol Monododecyl Ether] | > 880

tested on: Enterococcus faecium (VRE) MB 305; test: MIC agar dilution, VRE strain 25; assay type: cell-based; details: 22 hrs
Method: (§2) Molar equivalent concentrations were used to allow comparison between compounds of differing molecular mass. Due to weighing difficulties, any compound in solid form was melted in a water bath prior to dilution. To make ten-times strength concentrations, which takes into account agar dilution, 0.0352 mmol of each compound was weighed into plastic universal bottles and 4 mL of sterile distilled water (SDW) was added. To produce a homogenous emulsion the universals were vortexed; once achieved the emulsions were serial diluted by adding 2 mL to 2 mL of SDW.
(§3) For every 100 mL of Isosensitest agar (IST) (CM0471; Oxoid, Basingstoke, England), 3.1 g of the IST powder was added to 100 mL SDW (as per manufacturer's instructions) and sterilised for 15 minutes at 121° C. Once sterilised, the molten agar was cooled to 50° C. in a water-bath. Subsequently 4.8 g of CCEY powder (BC2160; Bioconnections, Wetherby, England), also known as Brazier's medium, was added to 100 mL SDW for every 100 mL of agar needed. This was then sterilised for 15 minutes at 121° C. Once sterilised the molten agar was cooled to 50° C. in a water-bath and 4 mL of egg-yolk emulsion (S2073; TCS Biosciences Ltd, Buckingham, United Kingdom) and 1 mL of lysed defibrinated horse blood (HB035; TCS Biosciences Ltd, Buckingham, United Kingdom) were also added for every 100 mL needed. Horse blood lysis is achieved by dilution to half concentration with SDW; when fully lysed the mixture will turn dark red in colour.
(§4) 18 mL agar was added to each universal and then poured into sterile Petri dishes. This step creates a 1/10 dilution resulting in agar plates of the required strength. Control plates for each set of strains were created by adding 18 mL of agar to 2 mL of SDW.
(§5) Suspensions of each bacterial species were prepared with a density equal to that of a 0.5 McFarland standard using a densitometer. All suspensions were made using sterile distilled water and fresh 18-20 hour cultures. As a 0.5 McFarland standard contains 1.5×10^8 CFU/mL and the multipoint inoculators applies 1 μL spots of liquid, each bacterial suspension was diluted 1/15 (20 μL suspension to 280 μL sterile distilled water).
(§6) Bacterial suspensions were prepared from fresh 18-24 hour cultures as previously described. 1 μL of each strain was inoculated onto all 100 agar plates containing a different chemical concentration and the 2 control plates. This was done using a multipoint inoculator which inoculates 20 strains per plate. All plates were incubated for 22 hours at 37° C. in aerobic conditions.
(§7) Each plate was examined for bacterial growth after 22 and 48 hours, with each being incubated in between examinations. A positive result was recorded as growth of ≧10 colonies. A negative result was recorded as growth of <10 colonies as this is equivalent to 99.9% inhibition. The lowest concentration of chemical that inhibited growth was recorded as the MIC. The results are recorded in Table IV below, where the numbers are quoted in mmol/L.
(§8) Given the positive performance of the ethoxylates of lauryl alcohol in reducing the MIC for a number of the micro-organisms tested, further MIC testing of Laureth-1 [C12E1] through to Laureth-8 [C12E8] was conducted on each of the following: • 10 strains of vancomycin-resistant enterococci (VRE)—listed in Table V below; and • 20 strains of methicillin-resistant Staphylococcus aureus (MRSA)—listed in Table VI.
(§9) The alkanol, alkanol derivatives, agar plates, and inocula were all prepared in the same way as described above.
(§10) The plates were examined in the same manner as described above and the results are recorded in Table VII below, where the numbers are quoted in mmol/L.

Compound | MIC [µM]
CCCCCCCCCCCCOCCOCCOCCO [L3, Triethylene Glycol Monododecyl Ether] | 440 (≈ 140 µg/mL)
CCCCCCCCCCCCOCCOCCOCCOCCOCCOCCOCCOCCO [L8, Octaethylene Glycol Monododecyl Ether] | > 880

same assay, conditions: 48 hrs

Compound | MIC [µM]
CCCCCCCCCCCCOCCOCCOCCO [L3, Triethylene Glycol Monododecyl Ether] | 440 (≈ 140 µg/mL)
CCCCCCCCCCCCOCCOCCOCCOCCOCCOCCOCCOCCO [L8, Octaethylene Glycol Monododecyl Ether] | > 880

tested on: Enterococcus faecium (VRE) MB310; test: MIC agar dilution, VRE strain 29; assay type: cell-based; details: 22 hrs
Method: as §2, §3, §4, §5, §6, §7, §8, §9, §10

Compound | MIC [µM]
CCCCCCCCCCCCOCCOCCOCCO [L3, Triethylene Glycol Monododecyl Ether] | 440 (≈ 140 µg/mL)
CCCCCCCCCCCCOCCOCCOCCOCCOCCOCCOCCOCCO [L8, Octaethylene Glycol Monododecyl Ether] | > 880

same assay, conditions: 48 hrs

Compound | MIC [µM]
CCCCCCCCCCCCOCCOCCOCCO [L3, Triethylene Glycol Monododecyl Ether] | 440 (≈ 140 µg/mL)
CCCCCCCCCCCCOCCOCCOCCOCCOCCOCCOCCOCCO [L8, Octaethylene Glycol Monododecyl Ether] | > 880

tested on: MRSA FIN 54518 (E7); test: MIC agar dilution, MRSA strain 31; assay type: cell-based; details: Staphylococcus aureus, 22 hrs
Method: as §2, §3, §4, §5, §6, §7, §8, §9, §10

Compound | MIC [µM]
CCCCCCCCCCCCOCCOCCOCCO [L3, Triethylene Glycol Monododecyl Ether] | 220 (≈ 70.1 µg/mL)
CCCCCCCCCCCCOCCOCCOCCOCCOCCOCCOCCOCCO [L8, Octaethylene Glycol Monododecyl Ether] | > 440

same assay, conditions: Staphylococcus aureus, 48 hrs

Compound | MIC [µM]
CCCCCCCCCCCCOCCOCCOCCO [L3, Triethylene Glycol Monododecyl Ether] | 440 (≈ 140 µg/mL)
CCCCCCCCCCCCOCCOCCOCCOCCOCCOCCOCCOCCO [L8, Octaethylene Glycol Monododecyl Ether] | > 440

tested on: MRSA FIN 54511 (E6); test: MIC agar dilution, MRSA strain 32; assay type: cell-based; details: Staphylococcus aureus, 22 hrs
Method: as §2, §3, §4, §5, §6, §7, §8, §9, §10

Compound | MIC [µM]
CCCCCCCCCCCCOCCOCCOCCO [L3, Triethylene Glycol Monododecyl Ether] | 220 (≈ 70.1 µg/mL)
CCCCCCCCCCCCOCCOCCOCCOCCOCCOCCOCCOCCO [L8, Octaethylene Glycol Monododecyl Ether] | 220 (≈ 119 µg/mL)

same assay, conditions: Staphylococcus aureus, 48 hrs

Compound | MIC [µM]
CCCCCCCCCCCCOCCOCCOCCO [L3, Triethylene Glycol Monododecyl Ether] | 220 (≈ 70.1 µg/mL)
CCCCCCCCCCCCOCCOCCOCCOCCOCCOCCOCCOCCO [L8, Octaethylene Glycol Monododecyl Ether] | > 440

tested on: MRSA GER 1966/97 (Hanover IIIc); test: MIC agar dilution, MRSA strain 36; assay type: cell-based; details: Staphylococcus aureus, 22 hrs
Method: as §2, §3, §4, §5, §6, §7, §8, §9, §10

Compound | MIC [µM]
CCCCCCCCCCCCOCCOCCOCCO [L3, Triethylene Glycol Monododecyl Ether] | 55 (≈ 17.5 µg/mL)
CCCCCCCCCCCCOCCOCCOCCOCCOCCOCCOCCOCCO [L8, Octaethylene Glycol Monododecyl Ether] | 110 (≈ 59.3 µg/mL)

same assay, conditions: Staphylococcus aureus, 48 hrs

Compound | MIC [µM]
CCCCCCCCCCCCOCCOCCOCCO [L3, Triethylene Glycol Monododecyl Ether] | 55 (≈ 17.5 µg/mL)
CCCCCCCCCCCCOCCOCCOCCOCCOCCOCCOCCOCCO [L8, Octaethylene Glycol Monododecyl Ether] | 110 (≈ 59.3 µg/mL)

tested on: MRSA FRA 95035; test: MIC agar dilution, MRSA strain 37; assay type: cell-based; details: Staphylococcus aureus, 22 hrs
Method: as §2, §3, §4, §5, §6, §7, §8, §9, §10

Compound | MIC [µM]
CCCCCCCCCCCCOCCOCCOCCO [L3, Triethylene Glycol Monododecyl Ether] | 55 (≈ 17.5 µg/mL)
CCCCCCCCCCCCOCCOCCOCCOCCOCCOCCOCCOCCO [L8, Octaethylene Glycol Monododecyl Ether] | > 440

same assay, conditions: Staphylococcus aureus, 48 hrs

Compound | MIC [µM]
CCCCCCCCCCCCOCCOCCOCCO [L3, Triethylene Glycol Monododecyl Ether] | 55 (≈ 17.5 µg/mL)
CCCCCCCCCCCCOCCOCCOCCOCCOCCOCCOCCOCCO [L8, Octaethylene Glycol Monododecyl Ether] | > 440

tested on: MRSA NCTC 11939; test: MIC agar dilution, MRSA strain 50; assay type: cell-based; details: Staphylococcus aureus; MRSA strain 50 NCTC 11939; 22 hrs
Method: as §2, §3, §4, §5, §6, §7, §8, §9, §10

Compound | MIC [µM]
CCCCCCCCCCCCOCCOCCOCCO [L3, Triethylene Glycol Monododecyl Ether] | 55 (≈ 17.5 µg/mL)
CCCCCCCCCCCCOCCOCCOCCOCCOCCOCCOCCOCCO [L8, Octaethylene Glycol Monododecyl Ether] | 220 (≈ 119 µg/mL)

same assay, conditions: Staphylococcus aureus; MRSA strain 50 NCTC 11939; 48 hrs

Compound | MIC [µM]
CCCCCCCCCCCCOCCOCCOCCO [L3, Triethylene Glycol Monododecyl Ether] | 55 (≈ 17.5 µg/mL)
CCCCCCCCCCCCOCCOCCOCCOCCOCCOCCOCCOCCO [L8, Octaethylene Glycol Monododecyl Ether] | 220 (≈ 119 µg/mL)
